Results: patent US9422254B2, “Methoxyacrylate-based fungicide and methods for preparing and using the same” (priority 2008, dated 2016)
Where “and” joins values, the source holds several entries; their conditions need not be identical. Equal entries are not always repeated.

Columns and labels:
Sclerotinia sclerotirum = test: microbe, parasite or virus in culture; assay type: cell-based; details: read-out: Inhibition rate (%)
Phytophthora infestans = test: microbe, parasite or virus in culture; assay type: cell-based; details: read-out: Inhibition rate (%)
Phytophthora capsici = test: microbe, parasite or virus in culture; assay type: cell-based; details: read-out: Inhibition rate (%)
Alternaria solani = test: microbe, parasite or virus in culture; assay type: cell-based; details: read-out: Inhibition rate (%)
Bipolaris sorokiniana = test: microbe, parasite or virus in culture; assay type: cell-based; details: read-out: Inhibition rate (%)
Ustilaginoidea virens = test: microbe, parasite or virus in culture; assay type: cell-based
[1] = system: Cucumber brown spot (strain SDHGHB060509); test: In vivo micro-screening assay
Excerpt: (§1) 3. In Vivo Micro-Screening Assay

[2] = system: Pepper phytophthora blight (strain NSGP); test: In vivo micro-screening assay; design: species or system Phytophthora capsici; details: root-irrigation
Excerpt: as §1

bee = test: Acute contact toxicity test on bee; assay type: in vivo
Method: After acute toxicity and Ames test had been finished, environmental toxicity test was conducted following “Guideline for Environmental Safety Evaluation of Chemical Pesticides” of Agriculture Ministry of China by Shenyang Chemical Research Institute/Supervision and Test Center for Pesticide Safety Evaluation and Quality Control.

[3] = target: succinate-cytochrome C oxidase (SCO) (Sus scrofa, UniProt P24964); test: Enzyme activity test, SCO; assay type: biochemical; details: azoxystrobin as control agent
succinate-cytochrome C oxidase (SCO), sequence (P24964 whole entry): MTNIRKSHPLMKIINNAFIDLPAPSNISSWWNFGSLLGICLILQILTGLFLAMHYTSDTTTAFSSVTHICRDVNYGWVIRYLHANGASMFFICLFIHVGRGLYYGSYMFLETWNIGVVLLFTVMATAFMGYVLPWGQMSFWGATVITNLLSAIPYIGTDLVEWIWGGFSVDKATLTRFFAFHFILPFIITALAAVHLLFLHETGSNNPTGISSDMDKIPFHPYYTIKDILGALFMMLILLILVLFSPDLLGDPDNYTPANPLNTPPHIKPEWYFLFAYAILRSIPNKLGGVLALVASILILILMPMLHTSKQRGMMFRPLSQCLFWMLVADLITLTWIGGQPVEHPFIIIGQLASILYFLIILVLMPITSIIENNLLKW
Method: Take NADH oxidase (NOX), succinate-cytochrome C oxidase (SCO), and Complex III as target enzymes, the inhibitory activity of the compound of Formula (I) was tested.
^a NOX is generally used to detect an inhibitor of Complex I and Complex III; SCO is generally used to detect an inhibitor of Complex II and Complex III. Thus, an inhibitor of Complex III should have inhibitory activity on the two enzymes.

cucumber powdery mildew = test: Field efficacy trial of emulsifier concentrate 1, cucumber powdery mildew; assay type: in vivo
Method: (§2) To a beaker (1000 mL), 50 g (100% basis) of the compound of Formula (I), 150 g of DMF, and 50 g of acetone were added and stirred for dissolution. To the solution, 25 g of pesticide emulsifier No. 500 and 50 g of Tween 80, 20 g of epoxidized soybean oil, and […] of toluene were added. Thus, the emulsifier concentrate 1 having 5 wt. % of the compound of Formula (I) was obtained and further packed.
(§3) On the basis of indoor activity evaluation, field efficacy trials of the compound of Formula (I) on cucumber downy mildew, cucumber powdery mildew, and melon powdery mildew were conducted.

cucumber downy mildew = test: Field efficacy trial of emulsifier concentrate 1, cucumber downy mildew; assay type: in vivo
Method: as §2, §3

[4] = system: Cucumber sclerotinia rot (strain HGJH); test: In vivo micro-screening assay
Method: To further study the fungicidal spectrum of the compound of Formula (I), indoor in vivo micro-screening assay were carried out on cucumber gray mold, cucumber scab, cucumber sclerotinia rot, cucumber brown spot, pepper phytophthora blight, and rice sheath blight.
Cucumber scab strain: HX; cucumber brown spot strain: SDHGHB060509; cucumber sclerotinia rot strain: HGJH; pepper phytophthora blight strain: NSGP; and rice sheath blight strain: WK-1.
Medicament to be tested and medicament of control groups were prepared as needed in a sunny morning. Cucumber gray mold, cucumber scab, cucumber brown spot, cucumber sclerotinia rot, and rice sheath blight were medicated by spray, and after air dry, pathogens of cucumber scab and of cucumber brown spot were inoculated through spraying spore suspension respectively, pathogens of cucumber gray mold, of cucumber sclerotinia rot, and of rice sheath blight were inoculated through lawn foliage. Pepper phytophthora blight was medicated and inoculated by root-irrigation. Subsequently, all seedlings were cultured in wet environment.
After the disease of control groups were serious, spot area, disease index, and the diseased seedling rate were investigated to calculate the efficacy. Cucumber scab, cucumber brown spot, and pepper phytophthora blight were investigated by grading method. The spot extension area of cucumber gray mold and of rice sheath blight was investigated. The diseased seedling rate of cucumber sclerotinia rot was investigated. Disease index=Σ(amount of infected diseased leaves in a grade×relative value of the grade)×100/(total amount of leaves×9); Diseased seedling rate (%)=(total amount of seedlings−amount of diseased seedlings)/total amount of seedlings×100% Prevention and treatment effect (%)=(disease of control group−disease of experiment group)/disease of control group×100%

[5] = 25 mg/L, 5th day after third administration, Average
[6] = 25 mg/L, 5th day after third administration, No. 1-3
[7] = 25 mg/L, 9th day after third administration, Average
[8] = 25 mg/L, 9th day after third administration, No. 1-3
[9] = 25 mg/L, 12th day after second administration, Average
[10] = 25 mg/L, 12th day after second administration, No. 1-3
[11] = 50 mg/L, 5th day after third administration, Average
[12] = 50 mg/L, 5th day after third administration, No. 1-3
[13] = 50 mg/L, 9th day after third administration, Average
[14] = 50 mg/L, 9th day after third administration, No. 1-3
[15] = 50 mg/L, 12th day after second administration, Average
[16] = 50 mg/L, 12th day after second administration, No. 1-3
[17] = 100 mg/L, 5th day after third administration, Average
[18] = 100 mg/L, 5th day after third administration, No. 1-3
[19] = 100 mg/L, 9th day after third administration, Average
[20] = 100 mg/L, 9th day after third administration, No. 1-3
[21] = 100 mg/L, 12th day after second administration, Average

CO/C=C(/C(=O)OC)c1ccccc1CSc1nc2cc(OC)ccc2s1 [Compound of Formula (I), (E)-methyl 3-methoxy-2-(2-((5-methoxy-benzothiazol-2-ylthio)methyl)phenyl)acrylate]
inhibition at 0.3 µg/mL (Sclerotinia sclerotirum; 0.3 mg/L): 50.8% | inhibition at 3 µg/mL (Sclerotinia sclerotirum; 3 mg/L): 61% | inhibition at 30 µg/mL (Sclerotinia sclerotirum; 30 mg/L): 80% | inhibition at 0.3 µg/mL (Phytophthora infestans): 15.3% | inhibition at 3 µg/mL (Phytophthora infestans): 33.7% | inhibition at 30 µg/mL (Phytophthora infestans): 38% | inhibition at 0.3 µg/mL (Phytophthora capsici; 0.3 mg/L): 0% | inhibition at 3 µg/mL (Phytophthora capsici; 3 mg/L): 23.1% | inhibition at 30 µg/mL (Phytophthora capsici; 30 mg/L): 28.9% | inhibition at 0.3 µg/mL (Alternaria solani; 0.3 mg/L): 32.4% | inhibition at 3 µg/mL (Alternaria solani; 3 mg/L): 39.2% | inhibition at 30 µg/mL (Alternaria solani; 30 mg/L): 43.9% | inhibition at 0.3 µg/mL (Bipolaris sorokiniana; 0.3 mg/L): 18.8% | inhibition at 3 µg/mL (Bipolaris sorokiniana; 3 mg/L): 40.6% | inhibition at 30 µg/mL (Bipolaris sorokiniana; 30 mg/L): 43.8% | in vitro effect (Ustilaginoidea virens): particularly effective | inhibition at 0.3 µg/mL (Ustilaginoidea virens; Ustilaginoidea virens, 0.3 mg/L, read-out: Inhibition rate (%)): 74.8% | inhibition at 3 µg/mL (Ustilaginoidea virens; Ustilaginoidea virens, 3 mg/L, read-out: Inhibition rate (%)): 100% | inhibition at 30 µg/mL (Ustilaginoidea virens; Ustilaginoidea virens, 30 mg/L, read-out: Inhibition rate (%)): 100% | prevention and treatment effect [1]: good prevention and treatment effect | Disease index ([1]; 100 mg/L): 6.11 | Efficacy (%) ([1]; 100 mg/L): 85.00% | Disease index ([1]; 500 mg/L): 4.44 | Efficacy (%) ([1]; 500 mg/L): 89.10% | Efficacy (%) ([2]; 100 mg/L): 26.22% | Spot area (mm^2) ([2]; 100 mg/L): 25.33 mm^2 | Efficacy (%) ([2]; 500 mg/L): 30.09% | Spot area (mm^2) ([2]; 500 mg/L): 24 mm^2 | LC50 (48 hrs) (bee): LC50 (48 hrs) > 100 μg a.i./per bee | inhibitory activity on SCO compared with azoxystrobin [3]: much higher inhibitory activity | Disease index (%) (cucumber powdery mildew; 12.5 mg/L, 7th day, Average): 5.9% | Efficacy (%) (cucumber powdery mildew; 12.5 mg/L, 7th day, Average): 70.50% | Disease index (%) (cucumber powdery mildew; 12.5 mg/L, 7th day, No. 1-4): 5.5% and 6.7% and 5.8% | Efficacy (%) (cucumber powdery mildew; 12.5 mg/L, 7th day, No. 1-4): 71.05% and 70.59% and 71.54% and 69.71% | Disease index (%) (cucumber powdery mildew; 12.5 mg/L, 14th day, Average): 6.8% | Efficacy (%) (cucumber powdery mildew; 12.5 mg/L, 14th day, Average): 75.66% | Disease index (%) (cucumber powdery mildew; 12.5 mg/L, 14th day, No. 1-4): 6.4% and 6.3% and 7.8% and 6.6% | Efficacy (%) (cucumber powdery mildew; 12.5 mg/L, 14th day, No. 1-4): 74.80% and 76.40% and 75.73% and 76.45% | Disease index (%) (cucumber powdery mildew; 12.5 mg/L, 21st day, Average): 12.7% | Efficacy (%) (cucumber powdery mildew; 12.5 mg/L, 21st day, Average): 68.91% | Disease index (%) (cucumber powdery mildew; 12.5 mg/L, 21st day, No. 1-4): 12.6% and 12.0% and 13.9% and 12.3% | Efficacy (%) (cucumber powdery mildew; 12.5 mg/L, 21st day, No. 1-4): 67.88% and 68.34% and 69.40% and 70.29% | Disease index (%) (cucumber powdery mildew; 25 mg/L, 7th day, Average): 3.9% | Efficacy (%) (cucumber powdery mildew; 25 mg/L, 7th day, Average): 77.54% | Disease index (%) (cucumber powdery mildew; 25 mg/L, 7th day, No. 1-4): 3.6% and 4.2% and 4.6% and 3.3% | Efficacy (%) (cucumber powdery mildew; 25 mg/L, 7th day, No. 1-4): 78.48% and 76.74% and 77.57% and 77.35% | Disease index (%) (cucumber powdery mildew; 25 mg/L, 14th day, Average): 4.0% | Efficacy (%) (cucumber powdery mildew; 25 mg/L, 14th day, Average): 83.51% | Disease index (%) (cucumber powdery mildew; 25 mg/L, 14th day, No. 1-4): 3.5% and 4.2% and 4.8% | Efficacy (%) (cucumber powdery mildew; 25 mg/L, 14th day, No. 1-4): 84.35% and 83.71% and 82.85% and 83.59% | Disease index (%) (cucumber powdery mildew; 25 mg/L, 21st day, Average): 7.0% | Efficacy (%) (cucumber powdery mildew; 25 mg/L, 21st day, Average): 77.78% | Disease index (%) (cucumber powdery mildew; 25 mg/L, 21st day, No. 1-4): 6.8% and 8.0% and 6.2% | Disease index (%) (cucumber powdery mildew; 50 mg/L, 7th day, Average): 2.4% | Efficacy (%) (cucumber powdery mildew; 50 mg/L, 7th day, Average): 85.63% | Disease index (%) (cucumber powdery mildew; 50 mg/L, 7th day, No. 1-4): 2.1% and 2.4% and 2.8% and 2.2% | Efficacy (%) (cucumber powdery mildew; 50 mg/L, 7th day, No. 1-4): 85.88% and 84.49% and 86.18% and 85.31% | Disease index (%) (cucumber powdery mildew; 50 mg/L, 14th day, Average): 2.1% | Efficacy (%) (cucumber powdery mildew; 50 mg/L, 14th day, Average): 90.99% | Disease index (%) (cucumber powdery mildew; 50 mg/L, 14th day, No. 1-4): 2.1% and 1.8% and 2.7% and 1.9% | Efficacy (%) (cucumber powdery mildew; 50 mg/L, 14th day, No. 1-4): 89.44% and 91.85% and 90.23% and 91.34% | Disease index (%) (cucumber powdery mildew; 50 mg/L, 21st day, Average): 3.6% | Efficacy (%) (cucumber powdery mildew; 50 mg/L, 21st day, Average): 89.45% | Disease index (%) (cucumber powdery mildew; 50 mg/L, 21st day, No. 1-4): 3.2% and 3.0% and 4.4% and 3.7% | Efficacy (%) (cucumber powdery mildew; 50 mg/L, 21st day, No. 1-4): 89.57% and 90.44% and 88.74% and 88.58% | Disease index (%) (cucumber powdery mildew; 100 mg/L, 7th day, Average): 1.5% | Efficacy (%) (cucumber powdery mildew; 100 mg/L, 7th day, Average): 91.67% | Disease index (%) (cucumber powdery mildew; 100 mg/L, 7th day, No. 1-4): 1.7% and 1.2% and 1.9% | Efficacy (%) (cucumber powdery mildew; 100 mg/L, 7th day, No. 1-4): 91.17% and 92.74% and 90.16% and 92.41% | Disease index (%) (cucumber powdery mildew; 100 mg/L, 14th day, Average): 1.2% | Efficacy (%) (cucumber powdery mildew; 100 mg/L, 14th day, Average): 95.23% | Disease index (%) (cucumber powdery mildew; 100 mg/L, 14th day, No. 1-4): 0.9% and 1.3% and 1.4% and 1.0% | Efficacy (%) (cucumber powdery mildew; 100 mg/L, 14th day, No. 1-4): 96.46% and 94.43% and 95.18% and 95.68% | Disease index (%) (cucumber powdery mildew; 100 mg/L, 21st day, Average): 2.9% | Efficacy (%) (cucumber powdery mildew; 100 mg/L, 21st day, Average): 91.52% | Disease index (%) (cucumber powdery mildew; 100 mg/L, 21st day, No. 1-4): 3.3% and 2.6% and 2.8% and 3.0% | Efficacy (%) (cucumber powdery mildew; 100 mg/L, 21st day, No. 1-4): 91.58% and 92.15% and 93.17% and 91.23% | Disease index (cucumber downy mildew; [5]): 4.75 | Efficacy (%) (cucumber downy mildew; [5]): 58.99% | Disease index (cucumber downy mildew; [6]): 4.86 and 4.51 | Efficacy (%) (cucumber downy mildew; [6]): 57.99% and 60.99% | Disease index (cucumber downy mildew; [7]): 11.50 | Efficacy (%) (cucumber downy mildew; [7]): 68.89% | Disease index (cucumber downy mildew; [8]): 12.04 and 10.42 | Efficacy (%) (cucumber downy mildew; [8]): 67.43% and 71.82% | Disease index (cucumber downy mildew; [9]): 1.85 | Efficacy (%) (cucumber downy mildew; [9]): 69.24% | Disease index (cucumber downy mildew; [10]): 1.74 and 2.08 | Efficacy (%) (cucumber downy mildew; [10]): 71.16% and 65.39% | Disease index (cucumber downy mildew; [11]): 3.94 | Efficacy (%) (cucumber downy mildew; [11]): 65.99% | Disease index (cucumber downy mildew; [12]): 3.47 and 4.51 and 3.82 | Efficacy (%) (cucumber downy mildew; [12]): 69.99% and 60.99% and 66.99% | Disease index (cucumber downy mildew; [13]): 8.72 | Efficacy (%) (cucumber downy mildew; [13]): 76.41% | Disease index (cucumber downy mildew; [14]): 10.65 and 7.18 and 8.33 | Efficacy (%) (cucumber downy mildew; [14]): 71.19% and 80.58% and 77.45% | Disease index (cucumber downy mildew; [15]): 1.39 | Efficacy (%) (cucumber downy mildew; [15]): 76.93% | Disease index (cucumber downy mildew; [16]): 1.04 and 1.74 and 1.39 | Efficacy (%) (cucumber downy mildew; [16]): 82.70% and 71.16% and 76.93% | Disease index (cucumber downy mildew; [17]): 2.55 | Efficacy (%) (cucumber downy mildew; [17]): 77.99% | Disease index (cucumber downy mildew; [18]): 2.08 and 2.43 and 3.13 | Efficacy (%) (cucumber downy mildew; [18]): 81.99% and 78.99% and 72.99% | Disease index (cucumber downy mildew; [19]): 7.10 | Efficacy (%) (cucumber downy mildew; [19]): 80.79% | Disease index (cucumber downy mildew; [20]): 8.10 and 7.18 and 6.02 | Efficacy (%) (cucumber downy mildew; [20]): 78.08% and 80.58% and 83.72% | Disease index (cucumber downy mildew; [21]): 1.02 | Efficacy (%) (cucumber downy mildew; [21]): 83.04% | Efficacy (%) (cucumber downy mildew; 100 mg/L, 12th day after second administration, No. 1-3): 83.71% and 76.93% and 88.46% | Efficacy (%) ([4]; 100 mg/L): 16.84% | Spot area (mm^2) ([4]; 100 mg/L): 70.08 mm^2 | Efficacy (%) ([4]; 500 mg/L): 58.88% | Spot area (mm^2) ([4]; 500 mg/L): 34.65 mm^2
